These results are taken from PMC11580984 (bioRxiv, 2024).

Numbered stars: 1 amine (or outer) side, 2 acyl side, 3 side chain; on linkers, the order of the positions; unused ones are H or OH. Bridge positions count the residues as written; N and C are the ends. Square brackets hold non-standard residues; d marks the D form. Peptide text beside a SMILES is read from it. X1 = O=S(=O)(F)Oc1cc(C[*:1])cc(C[*:2])c1; X2 = Oc1cc(C[*:1])cc(C[*:2])c1; Pra = C#CC[C@H](N)C(=O)O

The test system of one test is SARS-CoV-2 omicron BA.2. Format: cell-based.
Test [1] has as its system interaction between Omicron BA2 spike and ACE2. Format: binding, SARS-CoV-2.
The next test addresses BSA (Bos taurus, UniProt P02769). It is filed as binding. The conditions noted are these: highest concentration tested.

Chain of BSA (P02769 25-607): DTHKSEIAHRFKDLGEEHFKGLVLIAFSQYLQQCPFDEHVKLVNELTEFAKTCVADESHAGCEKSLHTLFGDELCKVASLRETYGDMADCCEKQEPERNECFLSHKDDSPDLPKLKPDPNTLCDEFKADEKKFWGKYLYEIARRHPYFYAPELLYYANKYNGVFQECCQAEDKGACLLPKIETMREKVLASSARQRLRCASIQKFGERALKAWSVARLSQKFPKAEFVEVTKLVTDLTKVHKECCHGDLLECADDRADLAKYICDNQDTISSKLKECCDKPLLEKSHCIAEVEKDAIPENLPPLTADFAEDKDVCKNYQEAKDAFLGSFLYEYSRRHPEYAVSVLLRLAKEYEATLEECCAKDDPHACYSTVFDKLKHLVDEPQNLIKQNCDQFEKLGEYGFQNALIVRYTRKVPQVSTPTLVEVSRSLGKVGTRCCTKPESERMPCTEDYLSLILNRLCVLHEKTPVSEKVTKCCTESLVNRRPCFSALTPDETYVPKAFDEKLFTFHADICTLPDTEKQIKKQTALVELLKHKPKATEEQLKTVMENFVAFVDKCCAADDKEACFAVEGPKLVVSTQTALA

In the case of `C#CC[C@H](N)C(=O)N[C@@H](CCC(N)=O)C(=O)N[C@H]1CSSC[C@@H](C(=O)NCC(N)=O)NC(=O)[C@H](CC(C)C)NC(=O)[C@H](C(C)C)NC(=O)[C@H](Cc2ccc(O)cc2)NC(=O)[C@H](CC(C)C)NC(=O)[C@H](CC(=O)O)NC(=O)[C@H](CCC(N)=O)NC(=O)[C@H](C(C)C)NC1=O` [CP_SW3A_DS] (H-[Pra]QCVQDLYVLCG-NH2; disulfide 3-11), the “change of inhibitory potency after 10-fold dilution” value in the test on SARS-CoV-2 omicron BA.2 is on record as “dramatic loss of activity after dilution”.

For the molecule `C#CC[C@H](NC(=O)[C@H](CCC(N)=O)NC(=O)[C@@H]1CSCc2cc(cc(OS(=O)(=O)F)c2)CSC[C@H](NC(=O)CN)C(=O)N[C@@H](CC(C)C)C(=O)N[C@@H](C(C)C)C(=O)N[C@@H](Cc2ccc(O)cc2)C(=O)N[C@@H](CC(C)C)C(=O)N[C@@H](CC(=O)O)C(=O)N[C@@H](CCC(N)=O)C(=O)N[C@@H](C(C)C)C(=O)N1)C(N)=O` [CP_SW3A_S1] (H-GCLVYLDQVCQ[Pra]-NH2; linker 2-10 via X1), the “antiviral activity” value with SARS-CoV-2 Omicron BA5, in the test on SARS-CoV-2 Omicron BA1 and in the test with SARS-CoV-2 Omicron BA2 was “only weak background activity” each time. In test [1], the “inhibition activity in MSD assay” value is recorded as “loss of inhibition activities”.

For the molecule `C#CC[C@H](N)C(=O)N[C@@H](CCC(N)=O)C(=O)N[C@H]1CSCc2cc(cc(OS(=O)(=O)F)c2)CSC[C@@H](C(=O)NCC(N)=O)NC(=O)[C@H](CC(C)C)NC(=O)[C@H](C(C)C)NC(=O)[C@H](Cc2ccc(O)cc2)NC(=O)[C@H](CC(C)C)NC(=O)[C@H](CC(=O)O)NC(=O)[C@H](CCC(N)=O)NC(=O)[C@H](C(C)C)NC1=O` [CP_SW3A] (H-[Pra]QCVQDLYVLCG-NH2; linker 3-11 via X1), at BSA, the “labeling of BSA” value is recorded as “only faint labeling”. Moreover, the “inhibition activity in MSD assay” value in test [1] is listed as “strong activity”.

For `C#CC[C@H](N)C(=O)N[C@@H](CCC(N)=O)C(=O)N[C@H]1CSCc2cc(cc(OS(=O)(=O)F)c2)CSC[C@@H](C(=O)NCC(N)=O)NC(=O)[C@H](C(C)C)NC(=O)[C@H](CCC(N)=O)NC(=O)[C@H](CC(=O)O)NC(=O)[C@H](CC(C)C)NC(=O)[C@H](Cc2ccc(O)cc2)NC(=O)[C@H](C(C)C)NC(=O)[C@H](CC(C)C)NC1=O` [CP_SW3A_S2] (H-[Pra]QCLVYLDQVCG-NH2; linker 3-11 via X1), the “antiviral activity” value in the test with SARS-CoV-2 Omicron BA5, with SARS-CoV-2 Omicron BA1 and in the test with SARS-CoV-2 Omicron BA2 was “only weak background activity” in each case. Further, the “inhibition activity in MSD assay” value in test [1] is recorded as “loss of inhibition activities”.

With “Sotrovimab: monoclonal antibody targeting the spike protein of SARS-CoV-2, positive control [reference compound]”, the response in the test with SARS-CoV-2 Omicron BA5 was half-maximal at 7 µM (EC50).

Regarding `C#CC[C@H](N)C(=O)N[C@@H](CCC(N)=O)C(=O)N[C@H]1CSCc2cc(O)cc(c2)CSC[C@@H](C(=O)NCC(N)=O)NC(=O)[C@H](CC(C)C)NC(=O)[C@H](C(C)C)NC(=O)[C@H](Cc2ccc(O)cc2)NC(=O)[C@H](CC(C)C)NC(=O)[C@H](CC(=O)O)NC(=O)[C@H](CCC(N)=O)NC(=O)[C@H](C(C)C)NC1=O` [CP_SW3A_Bz] (H-[Pra]QCVQDLYVLCG-NH2; linker 3-11 via X2), the “antiviral activity” value in the test with SARS-CoV-2 Omicron BA5, with SARS-CoV-2 Omicron BA1 and in the test with SARS-CoV-2 Omicron BA2 was “only weak background activity” throughout.
